Laboratory results published in paper PMC7037732, “Synthesis of Combretastatin A-4 and 3′-Aminocombretastatin A-4 derivatives with Aminoacid Containing Pendants and Study of their Interaction with Tubulin and as Downregulators of the VEGF, hTERT and c-Myc Gene Expression” (Molecules, 2020).

Assays:
[1] = system: HT-29 (human colon adenocarcinoma); assay: Inhibition of cell proliferation (MTT), HT-29; format: cell-based; settings: Homo sapiens, 48 h of treatment (footnote), average ±SD of three experiments
Excerpt: (§1) The ability of the synthetic compounds to inhibit cell proliferation was established by means of their IC50 values towards the tumor cell lines HT-29 (human colon adenocarcinoma), MCF-7 (breast adenocarcinoma) and A-549 (human pulmonary adenocarcinoma), as well as towards the nontumor cell line HEK-293 (human embryonic kidney cells). Results for compounds derived from CA-4 are presented in Table 1, along with the calculated selectivity indexes SIA (for HT-29 cell line), SIB (for MCF-7 cell line) and SIc (for A-549 cell line), obtained by dividing the IC50 values of the nontumor cell line (HEK-293) by those of the corresponding tumor cell line. The higher the SI index, the higher the therapeutic safety margin.
(§2) Cell culture media were purchased from Gibco (Grand Island, NY, USA). Fetal bovine serum (FBS) was a product of Harlan-Seralab (Belton, U.K.). Supplements and other chemicals not listed in this section were obtained from Sigma Chemical Co. (St. Louis, MO, USA). Plastics for cell culture were supplied by Thermo Fischer Scientific Inc., Madrid, Spain. All tested compounds were dissolved in DMSO at a concentration of 10 μg/mL and stored at −20 °C until use. HT-29, MCF-7, A-549 and HEK-293 cell lines were maintained in a Dulbecco’s modified Eagle’s medium (DMEM) containing glucose (1 g/L), glutamine (2 mM), penicillin (50 IU/mL), streptomycin (50 μg/mL) and amphotericin B (1.25 μg/mL), supplemented with 10% FBS. Cells from human non-small lung carcinoma (clone A549; ATCC n°: CCL2, MD, USA) were routinely grown at 37 °C in a humidified atmosphere of 5% CO2. Cells were maintained in a standard medium composed of RPMI 1640 (Lonza, Group Ltd., Basel, Switzerland), supplemented with 10% fetal bovine serum (FBS), 2 mM L-glutamine and 1% penicillin and streptomycin (Invitrogen). Cells were free from mycoplasma as determined by MycoAlert tests (Lonza, Group Ltd., Basel, Switzerland).
(§3) A total of 5 × 10^3 HT-29, MCF-7 or HEK-293 cells in a total volume of 100 μL of their respective growth media were incubated with serial dilutions of the tested compounds. The 3-(4,5-dimethylthiazol-2-yl)-2,5-diphenyltetrazolium bromide (MTT; Sigma Chemical Co.) dye reduction assay in a 96-well microplate was used, as previously described. […] The resulting formazan was dissolved in 150 μL of 0.04 N HCl/2-propanol and read at 550 nm. All determinations were carried out in triplicate.

[2] = system: purified tubulin; assay: Critical concentration (CrC) for the assembly of purified tubulin in GAB; format: biochemical; settings: compound 27.5 μM, tubulin 25 μM, glycerol (GAB) and GTP assembly buffer; control 7.9 ± 1.2
Method: The effect on the self-assembly of tubulin was determined by measuring the critical concentration (CrC).

[3] = system: HEK-293 (human embryonic kidney cells); assay: Inhibition of cell proliferation (MTT), nontumor HEK-293; format: cell-based; settings: Homo sapiens, 48 h of treatment (footnote), average ±SD of three experiments
Excerpt: as §1, §2, §3

[4] = system: MCF-7 (breast adenocarcinoma); assay: Inhibition of cell proliferation (MTT), MCF-7; format: cell-based, human; settings: Homo sapiens, 48 h of treatment (footnote), average ±SD of three experiments
Excerpt: as §1, §2, §3

[5] = system: A-549 (human pulmonary adenocarcinoma); assay: Inhibition of cell proliferation (MTT), A-549; format: cell-based; settings: 48 h of treatment (footnote), average ±SD of three experiments
Excerpt: as §1
as §2, with “Switzerland). […]” for “Switzerland).”

[6] = system: A-549 cells; assay: Cell cycle distribution by flow cytometry; format: cell-based, human; settings: A-549, 24 h; for cells accumulated in the G2/M phase: concentration per compound as in Tables 6 and 7, control 14%
Method: The effects of some CA-4 derivatives on the cell cycle were evaluated in A-549 cells.
The effects of some AmCA-4 derivatives on the cell cycle were also evaluated in A-549 cells.
The supernatant and trypsinated cells were harvested and then centrifuged (1200 rpm, 5 min, 4 °C). The cell pellet was resuspended in 1 mL of cold 70% ethanol for 30 min at −20 °C. Cells were centrifuged (2000 rpm, 5 min, 4 °C) to remove ethanol, and then the cell pellet was resuspended in the staining mix containing 50 µg/mL propidium iodide (Molecular Probes, France) and 100 µg/mL RNAse A (Sigma, France) in PBS for 20 min at room temperature in darkness. Samples were analyzed on a Becton Dickinson FACScan flow cytometer using the CellQuest software, which was also used to determine the percentage of cells in the G2/M phases of the cell cycle. PI was excited at 488 nm, and fluorescence analyzed at 620 nm on channel Fl-2.

[7] = Homo sapiens, A549, 48 h, Table 2
[8] = Homo sapiens, A549, 48 h, Table 1

Row | Structure (SMILES) | IC50 ([1]; HT-29, 48 h, Table 2) [µM] | CrC (critical concentration) [2] [µM] | IC50 ([3]; HEK293, 48 h, Table 2) [µM] | IC50 ([4]; MCF7, 48 h, Table 2) [µM] | IC50 [5, 7] [µM] | IC50 [5, 8] [µM] | IC50 ([1]; HT-29, 48 h, Table 1) [µM] | IC50 ([3]; HEK293, 48 h, Table 1) [µM] | IC50 ([4]; MCF7, 48 h, Table 1) [µM] | further results
1 | COc1ccc(/C=C\c2cc(OC)c(OC)c(OC)c2)cc1NC(=O)[C@H](NC(=O)OCC1c2ccccc2-c2ccccc21)C(C)C [Compound 9.1] | 5.5 ± 0.7 | 8.9 ± 1.5 | 5.1 ± 0.7 | 4.8 ± 0.5 | 7.34 ± 0.23 | – | – | – | – | –
2 | COc1ccc(/C=C\c2cc(OC)c(OC)c(OC)c2)cc1OCC(=O)N[C@@H](Cc1ccc(O)cc1)C(=O)O [Compound 4.8] | – | 8.5 ± 2.0 | – | – | – | 30 ± 7 | – | – | – | IC50 ([1]; HT-29, Table 1): 55 ± 5 µM; IC50 ([3]; HEK293, Table 1): 33 ± 1 µM; IC50 ([4]; MCF7, Table 1): 43 ± 7 µM
3 | COC(=O)[C@@H](Cc1ccccc1)NC(=O)COc1cc(/C=C\c2cc(OC)c(OC)c(OC)c2)ccc1OC [Compound 5.3] | – | – | – | – | – | 10 ± 3 | 12 ± 4 | 3.7 ± 1.6 | 6 ± 1 | G0/G1 ([6]; 50 μM): 38 ± 2%; G2/M ([6]; 50 μM): 43 ± 1%; S ([6]; 50 μM): 19 ± 2%
4 | COC(=O)CNC(=O)COc1cc(/C=C\c2cc(OC)c(OC)c(OC)c2)ccc1OC [Compound 3.1] | – | 9.52 ± 0.05 | – | – | – | 26 ± 2 | 12 ± 2 | 9 ± 1 | 8 ± 2 | –
5 | COc1ccc(/C=C\c2cc(OC)c(OC)c(OC)c2)cc1NC(=O)[C@@H](Cc1ccccc1)NC(=O)OCC1c2ccccc2-c2ccccc21 [Compound 9.3] | 13 ± 5 | 6.6 ± 0.2 | 11.2 ± 1.5 | 4.5 ± 1.7 | 18.5 ± 1.7 | – | – | – | – | –
6 | COc1ccc(/C=C\c2cc(OC)c(OC)c(OC)c2)cc1OCC(=O)N[C@@H](CO)C(=O)O [Compound 4.6] | – | 7.9 ± 1.6 | – | – | – | 36 ± 4 | 39 ± 16 | 17 ± 1 | 27 ± 9 | –
7 | COc1ccc(/C=C\c2cc(OC)c(OC)c(OC)c2)cc1NC(=O)[C@@H]1CCCN1 [Compound 8.6] | 0.7 ± 0.2 | 8.4 ± 0.1 | 2.4 ± 1.4 | 3.1 ± 0.6 | 1.2 ± 0.3 | – | – | – | – | –
8 | COc1ccc(/C=C\c2cc(OC)c(OC)c(OC)c2)cc1OCC(=O)N[C@H](C(=O)O)C(C)O (some centres unmarked) [Compound 4.7] | – | 10.1 ± 1.8 | – | – | – | 41 ± 3 | 34 ± 11 | 23 ± 9 | 40 ± 9 | –
9 | COc1ccc(/C=C\c2cc(OC)c(OC)c(OC)c2)cc1NC(=O)[C@H](N)Cc1ccccc1 [Compound 10.3] | 3.9 ± 0.8 | 7.7 ± 2.1 | 3.5 ± 0.9 | 2 ± 0.8 | 2.9 ± 0.5 | – | – | – | – | –
10 | COc1ccc(/C=C\c2cc(OC)c(OC)c(OC)c2)cc1NC(=O)[C@@H]1CCCN1C(=O)OCC1c2ccccc2-c2ccccc21 [Compound 7.6] | 0.32 ± 0.14 | 6.0 ± 0.5 | 0.13 ± 0.03 | 0.058 ± 0.012 | 1.33 ± 0.09 | – | – | – | – | –
11 | COC(=O)[C@H](Cc1ccccc1)NC(=O)COc1cc(/C=C\c2cc(OC)c(OC)c(OC)c2)ccc1OC [Compound 3.4] | – | – | – | – | – | < 10 | 28 ± 7 | 4 ± 1 | 8 ± 2 | G0/G1 ([6]; 50 μM): 33 ± 4%; G2/M ([6]; 50 μM): 51 ± 2%; S ([6]; 50 μM): 16 ± 5%; cells accumulated in the G2/M phase [6]: 50–70%; IC50 ([5]; Table 1): 9 ± 2 µM
12 | COc1ccc(/C=C\c2cc(OC)c(OC)c(OC)c2)cc1NC(=O)[C@@H](CC(C)C)NC(=O)OCC1c2ccccc2-c2ccccc21 [Compound 9.2] | 44 ± 6 | 6.5 ± 0.7 | 2.4 ± 0.4 | 3.1 ± 0.5 | 48 ± 3 | – | – | – | – | –
13 | COC(=O)[C@H](NC(=O)COc1cc(/C=C\c2cc(OC)c(OC)c(OC)c2)ccc1OC)C(C)C [Compound 5.1] | – | – | – | – | – | < 10 | 27 ± 7 | 3.9 ± 0.6 | 9 ± 3 | G0/G1 ([6]; 25 μM): 53 ± 8%; G2/M ([6]; 25 μM): 31 ± 7%; S ([6]; 25 μM): 16 ± 2%; IC50 ([5]; Table 1): 5 ± 1 µM
14 | COC(=O)[C@H](CO)NC(=O)COc1cc(/C=C\c2cc(OC)c(OC)c(OC)c2)ccc1OC [Compound 3.6] | – | – | – | – | – | 18 ± 4 | 9 ± 3 | 7 ± 2 | 7 ± 3 | G0/G1 ([6]; 75 μM): 30 ± 9%; G2/M ([6]; 75 μM): 53 ± 3%; S ([6]; 75 μM): 17 ± 6%; cells accumulated in the G2/M phase [6]: 50–70%
15 | COC(=O)[C@@H](CC(C)C)NC(=O)COc1cc(/C=C\c2cc(OC)c(OC)c(OC)c2)ccc1OC [Compound 5.2] | – | – | – | – | – | 22 ± 3 | 26 ± 1 | 13 ± 3 | 16 ± 3 | G0/G1 ([6]; 100 μM): 43 ± 4%; G2/M ([6]; 100 μM): 34 ± 1%; S ([6]; 100 μM): 23 ± 4%
